Results: PMC3667592 (Journal of medicinal chemistry, 2013)
Marks after values point to notes of the source that are not given here.

Columns and labels:
[1] = Ligand binding, UV-difference titration; settings: binding to N,N′-Ac2-L-Lys-D-Ala-D-Ala (3)
[2] = binding to N,N′-Ac2-L-Lys-D-Ala-D-Ala (3), ref 8a; cited from earlier work
VanA and VanB VRE = settings: cited from earlier work
[3] = reprogrammed precursor terminus D-Ala-D-Lac; cited from earlier work

| Structure (SMILES) | Association constant for 3, Ka [1] | Association constant for 3, Ka (value in parentheses) [2] | Fold drop in antimicrobial activity against resistant strains (VanA and VanB VRE) | Fold decrease in antibiotic binding affinity (D-Ala-D-Lac vs D-Ala-D-Ala) [3] |
| --- | --- | --- | --- | --- |
| CN[C@H](CC(C)C)C(=O)N[C@H]1C(=O)N[C@@H](CC(N)=O)C(=O)N[C@H]2C(=O)N[C@H]3C(=O)N[C@H](C(=O)N[C@H](C(=O)O)c4cc(O)cc(O)c4-c4cc3ccc4O)[C@H](O)c3ccc(c(Cl)c3)Oc3cc2cc(c3O[C@@H]2O[C@H](CO)[C@@H](O)[C@H](O)[C@H]2O[C@H]2C[C@](C)(N)[C@H](O)[C@H](C)O2)Oc2ccc(cc2Cl)[C@H]1O [Vancomycin (1), Vancomycin] | 1.8 M^−1 (× 10^5) | 2.3–3.9 M^−1 (× 10^5) | 1000 fold | 1000 fold |
| CN[C@H](CC(C)C)C(=O)N[C@H]1C(=O)N[C@@H](CC(N)=O)C(=O)N[C@H]2C(=O)N[C@H]3C(=O)N[C@H](C(=O)N[C@H](C(=O)O)c4cc(O)cc(O)c4-c4cc3ccc4O)[C@H](O)c3ccc(c(Cl)c3)Oc3cc2cc(c3O)Oc2ccc(cc2Cl)[C@H]1O [Vancomycin Aglycon (2), Vancomycin Aglycon] | 1.4 M^−1 (× 10^5) | – | – | – |
